In US10328135B2, “Method of obtaining cytolytic T cells by using mutant tumor epitopes” (priority 2010, dated 2019):

Experiments:
Assay type in all cases: cell-based, human
[1] = tested on: MART-126-35-specific CTL clone M26-H1; test: Saturation mutagenesis APL screen: bead-based cross-presentation by immature dendritic cells, IFN-γ sandwich ELISA; settings: 200 μl bacterial cultures, 88 clones, CTL clone M26-H1, FIG. 2
CD-4+ cells = test: NY-ESO-1 APL cross-presented mini-gene products, IFN-γ ELISA, CD-4+ cells (FIG. 8A)
Procedure: FIG. 8A. Native and superagonist CTL determinants can be distinguished in bead-based cross presentation assay. Oligonucleotides encoding NY-ESO-1157-170 were cloned into and expressed by pQE40 expression vectors. The mini-gene products were isolated and “fed” to immature dendritic cells as described in the Examples. NY-ESO-1157-170-specific CTL clones were used to detect the presence of the cross-presented mini-gene products (NY-ESO-1157-170). Induced IFN-γ expression was determined by standard sandwich ELISA. Synthetic wild-type peptide was used a positive control. […] Results for CD-4+ cells are shown.
FIG. 8A and FIG. 8B show the ability of several NY-ES0-1APL to stimulate CD-4^| fractions (FIG. 8A) and PBMC (FIG. 8B).

[2] = tested on: T2 cells pulsed with 1 μM of MART-126-35; test: In vitro cytotoxicity assay (51Cr release) by polyclonal CTL lines generated with analog peptides; target T2 pulsed with MART-126-35 (M26)
Procedure: (§1) Isolated cells were replicated using 30 ng/ml anti-CD3 antibody (OKT3) and IL-2 at 50 U/ml in the presence of irradiated feeder PBMC and LCL for 2 weeks. IL-2 was replenished every 2-3 days.
(§2) Target cells were labeled with 100 μCi of ^51Cr and co-cultured with effector cells for 4 hours at 37° C. plus 5% CO2. […] Released ^51Cr was measured with a gamma scintillation counter and percent specific lysis was determined by using the formula: percent specific release=(experimental release-spontaneous release)/(maximum release-spontaneous release). […]
(§3) “ND” is not done. T2 is a TAP-deficient cell line that expresses peptide-unbound HLA-A2 molecules unless pulsed extracellularly. […] Numbers represent the percentage specific lysis obtained from each target. T375 is a HLA-A2 positive/MART-1 negative cell line.

[3] = tested on: A375 (HLA-A2+/NY-ESO-1+) melanoma cell line; test: In vitro cytotoxicity assay (51Cr release) by polyclonal CTL lines generated with analog peptides; target A375
Procedure: as §1, §2, §3

[4] = tested on: T2 cells pulsed with NY-ESO-1157-165; test: In vitro cytotoxicity assay (51Cr release) by polyclonal CTL lines generated with analog peptides; target T2 pulsed with NY-ESO-1157-165 (negative control); settings: target T2 (pulsed with NYESO-1157-165)
Procedure: as §1, §2, §3

[5] = tested on: Mel 526 (HLA-A2+/MART-1+) melanoma cell line; test: In vitro cytotoxicity assay (51Cr release) by polyclonal CTL lines generated with analog peptides; target Mel 526; settings: target Mel526
Procedure: as §1, §2, §3

[6] = CTL line from Healthy1, E/T 12.5
[7] = CTL line from MelPt-B, E/T 12.5
[8] = CTL line from MelPt-C, E/T 12.5
[9] = CTL line from MelPt-D, E/T 12.5
[10] = CTL line from MelPt-F, E/T 12.5

## A27M: APL clones of MART-126-35 containing methionine residues at P2; previously described superagonist
[1]
  IFN-γ expression in P2 library screen of MART-126-35: greater IFN-γ expression than wild type MART-126-35

## F170W: NY-ESO-1157-170 APL F170W (SLLMWITQCFLPVW)
CD-4+ cells
  Stimulation of CD-4+ cells: most effective

## I162Q: NY-ESO-1157-170 APL I162Q (SLLMWQTQCFLPVF)
CD-4+ cells
  Stimulation of CD-4+ cells: most effective

## MART-126-35L33M (EAAGIGIMTV; UniProt Q16655 26-35, looked up, variant L33M)
[2]; [6]
  Percentage Specific Lysis from polyclonal CTL lines generated with the indicated peptide: 38%
[2]; CTL line from Healthy1, E/T 25
  Percentage Specific Lysis from polyclonal CTL lines generated with the indicated peptide: 49%
[2]; CTL line from Healthy1, E/T 50
  Percentage Specific Lysis from polyclonal CTL lines generated with the indicated peptide: 57%
[2]; [7]
  Percentage Specific Lysis from polyclonal CTL lines generated with the indicated peptide: 41%
[2]; CTL line from MelPt-B, E/T 25
  Percentage Specific Lysis from polyclonal CTL lines generated with the indicated peptide: 52%
[2]; CTL line from MelPt-B, E/T 50
  Percentage Specific Lysis from polyclonal CTL lines generated with the indicated peptide: 63%
[2]; [8]
  Percentage Specific Lysis from polyclonal CTL lines generated with the indicated peptide: 76%
[2]; CTL line from MelPt-C, E/T 25
  Percentage Specific Lysis from polyclonal CTL lines generated with the indicated peptide: 84%
[2]; CTL line from MelPt-C, E/T 50
  Percentage Specific Lysis from polyclonal CTL lines generated with the indicated peptide: 91%
[2]; [9]
  Percentage Specific Lysis from polyclonal CTL lines generated with the indicated peptide: 75%
[2]; CTL line from MelPt-D, E/T 25
  Percentage Specific Lysis from polyclonal CTL lines generated with the indicated peptide: 84%
[2]; CTL line from MelPt-D, E/T 50
  Percentage Specific Lysis from polyclonal CTL lines generated with the indicated peptide: 90%
[2]; [10]
  Percentage Specific Lysis from polyclonal CTL lines generated with the indicated peptide: 65%
[2]; CTL line from MelPt-F, E/T 25
  Percentage Specific Lysis from polyclonal CTL lines generated with the indicated peptide: 72%
[2]; CTL line from MelPt-F, E/T 50
  Percentage Specific Lysis from polyclonal CTL lines generated with the indicated peptide: 70%
[3]; [6]
  Percentage Specific Lysis from polyclonal CTL lines generated with the indicated peptide: 10%
[3]; CTL line from Healthy1, E/T 25
  Percentage Specific Lysis from polyclonal CTL lines generated with the indicated peptide: 13%
[3]; CTL line from Healthy1, E/T 50
  Percentage Specific Lysis from polyclonal CTL lines generated with the indicated peptide: 13%
[3]; [7]
  Percentage Specific Lysis from polyclonal CTL lines generated with the indicated peptide: 9%
[3]; CTL line from MelPt-B, E/T 25
  Percentage Specific Lysis from polyclonal CTL lines generated with the indicated peptide: 12%
[3]; CTL line from MelPt-B, E/T 50
  Percentage Specific Lysis from polyclonal CTL lines generated with the indicated peptide: 13%
[3]; [8]
  Percentage Specific Lysis from polyclonal CTL lines generated with the indicated peptide: 5%
[3]; CTL line from MelPt-C, E/T 25
  Percentage Specific Lysis from polyclonal CTL lines generated with the indicated peptide: 2%
[3]; CTL line from MelPt-C, E/T 50
  Percentage Specific Lysis from polyclonal CTL lines generated with the indicated peptide: 0%
[3]; [9]
  Percentage Specific Lysis from polyclonal CTL lines generated with the indicated peptide: 6%
[3]; CTL line from MelPt-D, E/T 25
  Percentage Specific Lysis from polyclonal CTL lines generated with the indicated peptide: 4%
[3]; CTL line from MelPt-D, E/T 50
  Percentage Specific Lysis from polyclonal CTL lines generated with the indicated peptide: 2%
[3]; [10]
  Percentage Specific Lysis from polyclonal CTL lines generated with the indicated peptide: 5%
[3]; CTL line from MelPt-F, E/T 25
  Percentage Specific Lysis from polyclonal CTL lines generated with the indicated peptide: 3%
[3]; CTL line from MelPt-F, E/T 50
  Percentage Specific Lysis from polyclonal CTL lines generated with the indicated peptide: 2%
[4]; [6]
  Percentage Specific Lysis from polyclonal CTL lines generated with the indicated peptide: 5%
[4]; CTL line from Healthy1, E/T 25
  Percentage Specific Lysis from polyclonal CTL lines generated with the indicated peptide: 6%
[4]; CTL line from Healthy1, E/T 50
  Percentage Specific Lysis from polyclonal CTL lines generated with the indicated peptide: 2%
[4]; [7]
  Percentage Specific Lysis from polyclonal CTL lines generated with the indicated peptide: 4%
[4]; CTL line from MelPt-B, E/T 25
  Percentage Specific Lysis from polyclonal CTL lines generated with the indicated peptide: 2%
[4]; CTL line from MelPt-B, E/T 50
  Percentage Specific Lysis from polyclonal CTL lines generated with the indicated peptide: 2%
[4]; [8]
  Percentage Specific Lysis from polyclonal CTL lines generated with the indicated peptide: 11%
[4]; CTL line from MelPt-C, E/T 25
  Percentage Specific Lysis from polyclonal CTL lines generated with the indicated peptide: 12%
[4]; CTL line from MelPt-C, E/T 50
  Percentage Specific Lysis from polyclonal CTL lines generated with the indicated peptide: 9%
[4]; [9]
  Percentage Specific Lysis from polyclonal CTL lines generated with the indicated peptide: 8%
[4]; CTL line from MelPt-D, E/T 25
  Percentage Specific Lysis from polyclonal CTL lines generated with the indicated peptide: 11%
[4]; CTL line from MelPt-D, E/T 50
  Percentage Specific Lysis from polyclonal CTL lines generated with the indicated peptide: 14%
[4]; [10]
  Percentage Specific Lysis from polyclonal CTL lines generated with the indicated peptide: 22%
[4]; CTL line from MelPt-F, E/T 25
  Percentage Specific Lysis from polyclonal CTL lines generated with the indicated peptide: 21%
[4]; CTL line from MelPt-F, E/T 50
  Percentage Specific Lysis from polyclonal CTL lines generated with the indicated peptide: 23%
[5]; [6]
  Percentage Specific Lysis from polyclonal CTL lines generated with the indicated peptide: 44%
[5]; CTL line from Healthy1, E/T 25
  Percentage Specific Lysis from polyclonal CTL lines generated with the indicated peptide: 57%
[5]; CTL line from Healthy1, E/T 50
  Percentage Specific Lysis from polyclonal CTL lines generated with the indicated peptide: 65%
[5]; [7]
  Percentage Specific Lysis from polyclonal CTL lines generated with the indicated peptide: 58%
[5]; CTL line from MelPt-B, E/T 25
  Percentage Specific Lysis from polyclonal CTL lines generated with the indicated peptide: 70%
[5]; CTL line from MelPt-B, E/T 50
  Percentage Specific Lysis from polyclonal CTL lines generated with the indicated peptide: 80%
[5]; [8]
  Percentage Specific Lysis from polyclonal CTL lines generated with the indicated peptide: 45%
[5]; CTL line from MelPt-C, E/T 25
  Percentage Specific Lysis from polyclonal CTL lines generated with the indicated peptide: 52%
[5]; CTL line from MelPt-C, E/T 50
  Percentage Specific Lysis from polyclonal CTL lines generated with the indicated peptide: 58%
[5]; [9]
  Percentage Specific Lysis from polyclonal CTL lines generated with the indicated peptide: 45%
[5]; CTL line from MelPt-D, E/T 25
  Percentage Specific Lysis from polyclonal CTL lines generated with the indicated peptide: 54%
[5]; CTL line from MelPt-D, E/T 50
  Percentage Specific Lysis from polyclonal CTL lines generated with the indicated peptide: 57%
[5]; [10]
  Percentage Specific Lysis from polyclonal CTL lines generated with the indicated peptide: 38%
[5]; CTL line from MelPt-F, E/T 25
  Percentage Specific Lysis from polyclonal CTL lines generated with the indicated peptide: 42%
[5]; CTL line from MelPt-F, E/T 50
  Percentage Specific Lysis from polyclonal CTL lines generated with the indicated peptide: 44%

## Q164S: NY-ESO-1157-170 APL Q164S (SLLMWITSCFLPVF)
CD-4+ cells
  Stimulation of CD-4+ cells: most effective
